The results in this text go back to patent publication US9353089B2, “Compositions and methods for the treatment of malaria” (Saint Louis University, priority 2013, dated 2016).

Like-named read-outs stand apart in the source and are kept apart here.

A short description of data set [1]: RLM metabolic stability assay. It is filed as in vitro ADME. The following applies: pH 7.4, rat liver microsomes, read-out: RLM t1/2. The method, then:
In this protocol, the metabolic stability of compounds at 1 μM was determined in Mouse Liver Microsome (MLM), rat liver microsomes (RLM) or human liver microsomes (HLM). […]. After incubation at 37° C. for a specific time period (0, 5, 10, 20 and 30 min), the reaction was terminated by the addition of 200 μL ice cold acetonitrile containing internal standard (100 ng/mL) after 100 μL aliquots of reaction mixture was removed. The quenched reaction mixtures were centrifuged at 3200 rpm for 5 min, and 100 μL of the supernatant were transferred to 96-well deep plate. The samples in 96 well plate were analyzed by LC-MS/MS using an Applied Biosystems-Sciex model API 3000 mass spectrometer. The data were analyzed using the following equations. […]
For orientation: Liver microsomes are vesicles of endoplasmic reticulum, rich in cytochrome P450 enzymes.

Data set [2] deals with Plasmodium falciparum 3D7 (CQ-sensitive). Kind of data set: In vitro antimalarial assay (malaria SYBR Green I-based fluorescence, MSF), 3D7. It is filed as cell-based. An outline of the steps: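 Asynchronous P. falciparum 3D7 cultures (0.5% parasitemia, 2% hematocrit) were exposed to serially diluted compounds, in quadruplicate. Growth was then quantified by SYBR Green I fluorescence after adding lysis buffer containing 0.2 μL/mL dye.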

Data set [3] addresses recombinant human Cathepsin D (Homo sapiens (Human), UniProt P07339). Briefly: Cathepsin D enzyme inhibition FRET assay. It counts as biochemical. The following applies: Table 8; read-out: CatD IC50. On the procedure: The enzymatic inhibition activity assays were determined using the fluorescence resonance energy transfer (FRET) assay. The assays were performed in a 384-well plate format. […] The concentration of Cathepsin D was 20 ng/μL, and 1 ng/μL of Cathepsin E was used. CatD and CatE were activated by incubation in assay buffer (0.1 M NaOAc, 0.2 M NaCl, pH 3.5) at room temperature for 30 min. Subsequently, the rhBACE-1 substrate (R&D Systems, catalog# ES004), the Cathepsin D and Cathepsin E substrate (R&D Systems, Catalog # ES001) were added accordingly to final concentration 20 μM to initiate the reaction. After 60 min incubation at room temperature, the time-resolved fluorescence at Ex/Em=360 nm/460 nm was measured on an EnVision multilabel plate reader (Perkin-Elmer). The analytical software, GraphPad Prism 5.0 (GraphPad Software, Inc., USA) was used to generate IC50 values via non-linear regression analysis, which are reported in Tables 8-13 below as BACE1 IC50 values.

The nature of data set [4]: Human Plasma Protein Binding (hPPB) assay. It is filed as in vitro ADME. The following applies: rapid equilibrium dialysis. On the procedure:
Human Plasma Protein Binding (hPPB) of test compounds was measured by rapid equilibrium dialysis device using the RED Device Inserts. In the reaction of 5 h, the drug concentration of the sample chamber and buffer chamber can be determined, through which we can calculated hPPB of test compounds. RED Device Inserts and Single-Use RED Base Plate were purchased from the Linden Bioscience, Woburn, Mass. (Taiwan, Thermo scientific). […]. Pooled human plasma from healthy individuals in this study was obtained from the Southern Medical University (China) and was stored frozen at −20° C. until use. SHZ-88A Reciprocating thermostatic oscillator was purchased from Taicang City Experimental Equipment Co. (China). Chlorpromazine (>99% in purity, positive control) and Phenacetin (>99% in purity, internal standard, IS) were all purchased from the Sigma Chemical Co. (China). Chlorpromazine HCl was used as a positive control. An aliquot ([…]) of plasma was accurately added into the sample chamber, and 6 μL compounds solution (500 μM, 50% DMSO) was added (n=3). An aliquot (500 μL) of Dulbecco solution was added into the buffer chamber. These solution were all oscillated for 5 hours (37° C., 90 rpm). Then, 50 μL solution in sample chamber was removed, 50 μL Dulbecco solution was added, and mixed. Also, 50 μL solution in buffer chamber was removed, 50 μL plasma was added, and mixed. 200 μL ACN (including internal Standard, 100 ng/mL) were added separately, oscillated, mixed, and centrifuged (20 min, 15000 g). An aliquot (50 μL) of the supernatant was accurately transferred to a clean 1.5 mL test tube and 100 μL H2O was added, mixed. 10 μL of mixture was separately injected into LC-MS system for determination of the drug concentration in the sample chamber and buffer chamber. The data were analyzed using the following equation: % hPPB=[1−(Concentrationbuffer chamber/Concentrationplasma chamber)]*100% (Barre, et al., 1985, which is incorporated herein by reference).

The test system of data set [5] is Plasmodium falciparum Dd2 (multi-drug resistant). Briefly: In vitro antimalarial assay (malaria SYBR Green I-based fluorescence, MSF), Dd2. It is filed as cell-based. On the procedure:
In vitro antimalarial activity was determined by a malaria SYBR Green I-based fluorescence (MSF) method described previously by Smilkstein et al. (2004, which is incorporated herein by reference) with slight modification (Winter, et al., 2006, which is incorporated herein by reference). Stock solutions of each test drug were prepared in DMSO at a concentration of 20 mM. The drug solutions were serially diluted with culture medium and distributed to asynchronous parasite cultures on 96-well plates in quadruplicate in a total volume of 100 μL to achieve 0.5% parasitemia with a 2% hematocrit in a total volume of 100 pt. The plates were then incubated for 72 h at 37° C. After incubation, 100 μL of lysis buffer with 0.2 μL/mL SYBR Green I was added to each well. The plates were incubated at 37° C. for an hour in the dark and then placed in a 96-well fluorescence plate reader (Spectramax Gemini-EM; Molecular Diagnostics) with excitation and emission wavelengths at 497 nm and 520 nm, respectively, for measurement of fluorescence.
Antimalarial potency of compounds was determined by this technique for both Plasmodium falciparum 3D7 (CQ-sensitive) and Dd2 (multi-drug resistant) strains.

Data set [6] relates to Plasmodium chabaudi ASS and ASCQ strains. Kind of data set: In vivo antimalarial efficacy 4-day suppressive test. The following applies: NIH mice, Day 4 postinoculation.
Method: Briefly, NIH mice (n=8 per group) were inoculated i.p. with 2×10^7 parasitized (Plasmodium chabaudi ASS or ASCQ) red blood cells. […] Groups (n=6) including a vehicle control and chloroquine (CQ) as a reference drug were included. Parasitemia levels were determined on the day following the last treatment (Day 4).
Where [7] appears, read: 3D7, 48 h, read-out: Pf 3D7 IC50 (μM, 48 hr), 48 hr.
[8] abbreviates: 3D7, 72 h, read-out: Pf 3D7 IC50 (μM, 72 hr), 72 hr.
The mark [9] stands for this setting: 3D7, read-out: 3D7 IC50 (μM), Table 13.
[10] abbreviates: 3D7, read-out: Pf3D7 IC50 (μM), Table 10.
The mark [11] stands for this setting: 3D7, read-out: Pf 3D7 IC50, Table 8.
Setting [12] is: DD2, 72 h, read-out: Pf Dd2 IC50 (μM, 72 hr).
Setting [13] is: 100 mpk orally once daily for four days.

Chain of recombinant human Cathepsin D (P07339 65-412): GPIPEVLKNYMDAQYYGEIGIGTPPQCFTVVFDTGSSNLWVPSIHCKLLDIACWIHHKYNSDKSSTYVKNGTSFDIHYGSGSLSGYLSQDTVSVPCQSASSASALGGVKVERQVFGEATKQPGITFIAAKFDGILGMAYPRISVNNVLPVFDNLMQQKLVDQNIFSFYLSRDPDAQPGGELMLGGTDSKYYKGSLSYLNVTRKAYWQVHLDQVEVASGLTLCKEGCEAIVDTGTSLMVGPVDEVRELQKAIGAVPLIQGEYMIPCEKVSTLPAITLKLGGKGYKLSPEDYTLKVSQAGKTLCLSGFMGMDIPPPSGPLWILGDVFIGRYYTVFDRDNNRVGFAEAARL

Take `COc1ccc(C2(c3ccc(OC)cc3)NC(=N)N(C3CCN(C(=O)OC(C)(C)C)CC3)C2=O)cc1` [Example 206, tert-butyl 4-[2-imino-4,4-bis(4-methoxyphenyl)-5-oxoimidazolidin-1-yl]piperidine-1-carboxylate]: the half-life at 1 μM in data set [1] came out at 14 min. Moreover, the IC50 – broadly, the midpoint of a concentration-inhibition curve – in data set [2] (setting [7]) was determined as 0.339 µM; in data set [2] (setting [8]), 0.383 µM; in data set [2] (setting [9]) it was 0.436 µM; in data set [2] (setting [10]) it was 0.436 µM; in data set [2] (setting [11]), 0.383 µM; in data set [3], 520 nM. In data set [5] (setting [12]), the IC50 is 0.367 µM. Also, the “hPPB (%)” value in data set [4] stood at 99.7%. In data set [6] (setting [13]), the “% Inhibition of parasitemia” value is listed as 73%.
In the case of `COc1ccc(C2(c3ccc(OC)cc3)NC(=N)N(C3CCOCC3)C2=O)cc1` [Example 176, 2-imino-5,5-bis(4-methoxyphenyl)-3-(oxan-4-yl)-imidazolidin-4-one], the half-life at 1 μM in data set [1] turned out to be 83 min. For the same compound, the IC50 in data set [2] (setting [7]) is 0.404 µM; in data set [2] (setting [8]) it was 0.459 µM; in data set [2] (setting [9]), 0.459 µM; in data set [2] (setting [10]), 0.459 µM; in data set [2] (setting [11]) it was 0.453 µM; in data set [3], more than 10000 nM. Also, the IC50 stood at 0.526 µM in data set [5] (setting [12]) and 0.526 µM in data set [5] (DD2, read-out: Dd2 IC50 (μM)). Also, in data set [4], the “hPPB (%)” value was determined as 78.1%. In addition, the “% Inhibition of parasitemia” value in data set [6] (110 mpk orally once daily for four days) was found to be 63%.
On to `COc1ccc(C2(c3ccc(OC)cc3)NC(=N)N(CC3CCOCC3)C2=O)cc1` [Example 275, 2-imino-5,5-bis(4-methoxyphenyl)-3-(oxan-4-ylmethyl)imidazolidin-4-one], for which the half-life at 1 μM in data set [1] came out at 35 min. The IC50 came to 0.571 µM in data set [2] (setting [7]); 0.463 µM in data set [2] (setting [8]); 0.521 µM in data set [2] (setting [9]); 0.463 µM in data set [2] (setting [10]); 0.463 µM in data set [2] (setting [11]); 934 nM in data set [3]. Besides, the IC50 in data set [5] (setting [12]) worked out at 0.442 µM; in data set [5] (DD2, read-out: Dd2 IC50 (μM)) it was 0.442 µM. Besides, the “hPPB (%)” value in data set [4] was 88.7%. Further, the “% Inhibition of parasitemia” value in data set [6] (setting [13]) worked out at 41%.
